Laboratory results published in ChEMBL document CHEMBL4406913, “INCB050465 (Parsaclisib), a Novel Next-Generation Inhibitor of Phosphoinositide 3-Kinase Delta (PI3Kδ)” (ACS Med Chem Lett, 2019).
Active and inactive are the calls of the source. The rule behind the calls is not given here.

Experiments:
Pfeiffer [1] = test: Cytotoxicity against human Pfeiffer cells assessed as reduction in cell viability incubated for 4 days by [3H]-thymidine incorporation based liquid scintillation counter method; format: functional
Pfeiffer [2] = test: Cytotoxicity against human Pfeiffer cells assessed as reduction in protein binding adjusted cell viability incubated for 4 days by [3H]-thymidine incorporation based liquid scintillation counter method; format: functional
[3] = Fractional unbound in human plasma; format: ADME, cell-free
SU-DHL-6 = test: Cytotoxicity against human SUDHL6 cells assessed as reduction in cell viability incubated for 4 days by celltiter glo luminescent assay; format: functional, cell-based; conditions: SU-DHL-6, 96 h
[4] = molecular target: T1, Phosphatidylinositol 4,5-bisphosphate 3-kinase catalytic subunit delta isoform (Homo sapiens, UniProt O00329)
T1 sequence (O00329 whole entry): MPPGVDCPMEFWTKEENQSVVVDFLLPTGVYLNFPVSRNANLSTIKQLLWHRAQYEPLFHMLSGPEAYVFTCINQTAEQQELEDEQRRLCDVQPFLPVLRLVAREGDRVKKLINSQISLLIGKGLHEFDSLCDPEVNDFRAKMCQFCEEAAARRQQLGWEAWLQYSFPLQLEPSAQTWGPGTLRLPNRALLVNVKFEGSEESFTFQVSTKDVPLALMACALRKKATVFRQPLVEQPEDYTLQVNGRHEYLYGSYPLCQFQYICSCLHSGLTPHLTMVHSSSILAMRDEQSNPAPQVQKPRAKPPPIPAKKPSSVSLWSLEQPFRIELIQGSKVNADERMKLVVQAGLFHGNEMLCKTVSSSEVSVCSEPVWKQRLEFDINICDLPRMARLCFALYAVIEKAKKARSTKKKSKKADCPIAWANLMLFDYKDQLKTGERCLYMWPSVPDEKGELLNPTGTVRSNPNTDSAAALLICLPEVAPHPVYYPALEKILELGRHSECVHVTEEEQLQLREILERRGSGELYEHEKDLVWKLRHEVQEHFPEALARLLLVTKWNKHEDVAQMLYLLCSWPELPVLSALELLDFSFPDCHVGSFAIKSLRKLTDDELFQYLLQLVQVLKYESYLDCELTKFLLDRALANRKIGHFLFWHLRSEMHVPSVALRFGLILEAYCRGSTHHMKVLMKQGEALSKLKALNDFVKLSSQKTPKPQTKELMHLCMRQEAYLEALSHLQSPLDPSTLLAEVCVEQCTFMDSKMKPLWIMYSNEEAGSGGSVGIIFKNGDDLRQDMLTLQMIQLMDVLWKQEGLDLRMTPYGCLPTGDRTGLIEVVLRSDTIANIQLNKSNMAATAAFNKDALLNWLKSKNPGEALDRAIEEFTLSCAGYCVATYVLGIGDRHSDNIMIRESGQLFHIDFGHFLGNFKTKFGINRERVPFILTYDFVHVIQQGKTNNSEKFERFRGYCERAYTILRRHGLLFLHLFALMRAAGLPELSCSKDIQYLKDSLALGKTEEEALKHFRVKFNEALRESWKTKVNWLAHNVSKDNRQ
Description: (§1) Inhibition of PI3Kdelta (unknown origin) using D-myophosphatidylinositol 4,5-bisphosphate as substrate incubated for 120 mins by [gamma-33P]ATP based SPA assay

[5] = AUC in rat at 5 mg/kg, po measured for 24 hrs by LC/MS/MS analysis; format: ADME, organism-based; conditions: in vivo
[6] = Toxicity in Beagle dog; design: species or system Canis lupus familiaris; conditions: in vivo
[7] = AUC in cynomolgus monkey at 1 mg/kg, po measured for 24 hrs by LC/MS/MS analysis; format: ADME, organism-based, Macaca fascicularis; conditions: in vivo
[8] = molecular target: Voltage-gated inwardly rectifying potassium channel KCNH2 (Homo sapiens, UniProt Q12809); test: Inhibition of human ERG channel at 30 uM incubated for 24 hrs in presence of [3H] Dofetilide by filter binding assay based scintillation counting analysis
Sequence of Voltage-gated inwardly rectifying potassium channel KCNH2 (Q12809 whole entry): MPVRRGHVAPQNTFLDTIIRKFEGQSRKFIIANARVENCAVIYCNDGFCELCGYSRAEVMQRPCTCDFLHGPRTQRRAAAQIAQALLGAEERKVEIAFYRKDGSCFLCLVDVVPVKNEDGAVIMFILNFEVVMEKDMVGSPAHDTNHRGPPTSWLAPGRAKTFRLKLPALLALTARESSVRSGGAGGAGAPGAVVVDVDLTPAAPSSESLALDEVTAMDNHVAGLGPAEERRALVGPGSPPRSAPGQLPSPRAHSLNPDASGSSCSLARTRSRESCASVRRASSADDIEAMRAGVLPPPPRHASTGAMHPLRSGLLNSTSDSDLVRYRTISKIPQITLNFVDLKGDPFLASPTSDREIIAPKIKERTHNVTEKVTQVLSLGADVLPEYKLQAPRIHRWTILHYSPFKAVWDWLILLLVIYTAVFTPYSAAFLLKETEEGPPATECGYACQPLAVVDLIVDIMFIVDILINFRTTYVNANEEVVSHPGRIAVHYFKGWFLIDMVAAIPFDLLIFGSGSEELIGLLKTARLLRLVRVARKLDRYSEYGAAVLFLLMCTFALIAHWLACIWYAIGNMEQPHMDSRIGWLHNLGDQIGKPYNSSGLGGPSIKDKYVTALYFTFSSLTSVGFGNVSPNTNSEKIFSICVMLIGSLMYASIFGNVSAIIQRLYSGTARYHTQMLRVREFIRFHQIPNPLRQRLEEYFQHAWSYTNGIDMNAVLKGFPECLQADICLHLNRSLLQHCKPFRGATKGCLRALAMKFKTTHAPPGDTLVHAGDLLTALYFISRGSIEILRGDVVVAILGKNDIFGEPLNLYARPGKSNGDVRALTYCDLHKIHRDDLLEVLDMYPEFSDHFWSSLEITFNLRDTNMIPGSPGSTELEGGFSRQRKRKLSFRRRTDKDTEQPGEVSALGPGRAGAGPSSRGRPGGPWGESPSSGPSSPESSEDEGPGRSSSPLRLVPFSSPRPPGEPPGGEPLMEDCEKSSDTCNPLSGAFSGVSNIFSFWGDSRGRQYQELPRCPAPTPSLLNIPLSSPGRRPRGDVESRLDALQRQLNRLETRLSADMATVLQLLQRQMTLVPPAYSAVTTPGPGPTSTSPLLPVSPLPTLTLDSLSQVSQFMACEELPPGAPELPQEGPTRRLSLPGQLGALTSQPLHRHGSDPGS

[9] = Toxicity in dog assessed as testicular lesions observed on day 28; design: species or system Canis lupus familiaris; conditions: in vivo
HEK293 = test: Cytotoxicity against human HEK293 cells assessed as reduction in cell viability at 20 uM incubated for 72 hrs by celltiter glo luminescent assay; format: cell-based; conditions: hek293, 72 h
[10] = AUC in rat at 4 mg/kg, po measured for 24 hrs by LC/MS/MS analysis; format: ADME, organism-based; conditions: in vivo
[11] = Permeability across apical to basolateral side in human Caco2 cells at 50 uM incubated for 120 mins by LC/MS analysis; format: ADME, cell-based; conditions: Caco-2, read-out: permeability
[12] = Half life in cynomolgus monkey at 10 mg/kg, po measured for 24 hrs by LC/MS/MS analysis; format: ADME, organism-based, Macaca fascicularis; conditions: in vivo
[13] = AUC in cynomolgus monkey at 10 mg/kg, po measured for 24 hrs by LC/MS/MS analysis; format: ADME, organism-based, Macaca fascicularis; conditions: in vivo
[14] = Half life in cynomolgus monkey at 2 mg/kg, po measured for 24 hrs by LC/MS/MS analysis; format: ADME, organism-based, Macaca fascicularis; conditions: in vivo
[15] = AUC in cynomolgus monkey at 2 mg/kg, po measured for 24 hrs by LC/MS/MS analysis; format: ADME, organism-based, Macaca fascicularis; conditions: in vivo
[16] = Intrinsic clearance in human liver microsomes at 1 uM measured upto 30 mins by LC/MS analysis; format: ADME, Microsome; conditions: read-out: CLH (converted)
[17] = molecular target: T2, Phosphatidylinositol 4,5-bisphosphate 3-kinase catalytic subunit delta isoform (Homo sapiens) (UniProt O00329)
T2 sequence (whole entry): T1 sequence (O00329 whole entry)
Description: as §1

Row | Structure (SMILES) | IC50 (Pfeiffer [1]) [nM] | IC50 (Pfeiffer [2]) [nM] | fraction unbound [3] | IC50 (SU-DHL-6) [nM] | IC50 [4] [nM] | other results
1 | COc1c(C(C)n2nc(C)c3c(N)ncnc32)cc(Cl)c(C)c1C1CCN(C)CC1 (racemic) | 11 | 53 | 0.19 | 44 | 11 | –
2 | C[C@H](Nc1ncnc2[nH]cnc12)c1cc(Cl)c2ccnnc2c1-c1cccc(F)c1 | 26 | 270 | 0.059 | 73 | – | AUC at 24 h [5]: 13 µM·h; Activity [6]: Toxic
3 | COc1c([C@H](C)n2nc(C)c3c(N)ncnc32)cc(Cl)c(C#N)c1C1CN(C[C@H](C)O)C1 | 1.5 | 3.6 | 0.42 | 2.4 | 1.9 | AUC at 24 h [7]: 4.1 µM·h; inhibition (INH) [8]: Active; AUC at 24 h [5]: 6.8 µM·h; Activity [9]: Toxic
4 | COc1c([C@H](C)Nc2ncnc(N)c2C#N)cc(Cl)c(C)c1-c1cncc(S(C)(=O)=O)c1 | 3.4 | 17 | 0.14 | 3.1 | 0.99 | Activity (HEK293): Toxic; AUC at 24 h [10]: 10 µM·h; inhibition (INH) [8]: Active; Papp A→B at 2 h, 50 µM [11]: 7.9 ×10⁻⁶ cm/s
5 | Cc1csc2nc([C@H](C)Nc3ncnc4[nH]cnc34)c(-c3cccc(F)c3)c(=O)n12 [DEZAPELISIB] | 14 | 66 | 0.17 | 18 | – | AUC at 24 h [5]: 4.4 µM·h; half-life [12]: 78 min; AUC at 24 h [13]: 4.9 µM·h
6 | COc1c([C@H](C)Nc2ncnc(N)c2C#N)cc(Cl)c(C)c1-c1ccc(C(=O)N(C)C)cn1 | 17 | 61 | 0.22 | 21 | 1.8 | Activity (HEK293): Non-Toxic; AUC at 24 h [10]: 7.7 µM·h; inhibition (INH) [8]: Not Active; half-life [14]: 12 min; AUC at 24 h [15]: 0.2 µM·h
7 | CCOc1c([C@H](C)n2nc(C)c3c(N)ncnc32)cc(Cl)c(C#N)c1C1CNC(=O)C1 (stereo partly drawn) | 1.7 | 4.1 | 0.23 | 0.47 | < 1 | CLint scaled at 1 µM [16]: 11.7 mL/min/kg; inhibition [17]: inactive; Papp A→B at 2 h, 50 µM [11]: 0.3 ×10⁻⁶ cm/s
8 | Cc1c(Cl)cc(C(C)Nc2ncnc3[nH]cnc23)c(-c2cccc(F)c2)c1-c1cnn(C)c1 (racemic) | 8.7 | – | – | 60 | 5.3 | –
9 | COc1c([C@H](C)Nc2ncnc3[nH]cnc23)cc(Cl)c(C)c1-c1ccc(S(C)(=O)=O)cc1 | 130 | 3100 | 0.013 | 170 | – | –
10 | COc1c(C(C)n2ncc3c(N)ncnc32)cc(Cl)c(C)c1-c1ccnc(C(=O)N(C)C)c1 (racemic) | 610 | 4500 | 0.092 | 840 | 120 | –
11 | COc1c([C@H](C)Nc2ncnc3[nH]cnc23)cc(Cl)c(C)c1-c1cncc(S(C)(=O)=O)c1 | 9.5 | 40 | 0.12 | 14 | 1.7 | AUC at 24 h [5]: 3 µM·h; Papp A→B at 2 h, 50 µM [11]: 0.5 ×10⁻⁶ cm/s
12 | COc1c([C@H](C)n2nc(C)c3c(N)ncnc32)cc(Cl)c(C)c1-c1ccnc(C(=O)N(C)C)c1 | 8.6 | 61 | 0.089 | 7.4 | 0.93 | –
13 | CCOc1c([C@H](C)n2nc(C)c3c(N)ncnc32)cc(Cl)c(C)c1C1CNC(=O)C1 (stereo partly drawn) | 4.8 | 47 | 0.065 | 2.1 | 1.4 | CLint scaled at 1 µM [16]: 11.7 mL/min/kg; inhibition [17]: inactive; Papp A→B at 2 h, 50 µM [11]: 1.9 ×10⁻⁶ cm/s
14 | Cc1c(Cl)cc(C(C)Nc2ncnc3[nH]cnc23)c(-c2cccc(F)c2)c1C#N (racemic) | 660 | – | 0.0064 | 1300 | – | –
15 | CC(Nc1ncnc2[nH]cnc12)c1ccc2cccnc2c1-c1cccc(F)c1 (racemic) | 490 | 3200 | 0.1 | 1800 | 430 | –
16 | C[C@H](Nc1ncnc2[nH]cnc12)c1cc(Cl)c2cccnc2c1-c1cccc(F)c1 | 50 | 1000 | 0.014 | 140 | 8.4 | –
17 | COc1c([C@H](C)Nc2ncnc3[nH]cnc23)cc(Cl)c(C)c1-c1cnn(C)c1 | 120 | 950 | 0.029 | 100 | 2.8 | –
18 | COc1c([C@H](C)n2nc(C)c3c(N)ncnc32)cc(Cl)c(C)c1C1CNC(=O)C1 (stereo partly drawn) | 51 | 480 | 0.1 | 13 | 2.4 | CLint scaled at 1 µM [16]: 11.7 mL/min/kg; inhibition (INH) [8]: Not Active; inhibition [17]: inactive; Papp A→B at 2 h, 50 µM [11]: 2.8 ×10⁻⁶ cm/s
